Patent US20110020460A1, “GPR 119 MODULATORS” (Pfizer Inc., priority 2009, published 2011)
Where “and” joins values, the source holds several entries; their conditions need not be identical. Identical values can stand only once.

Key:
[1] = biological target: T1, human GPR119 (Homo sapiens, UniProt Q8TDV5); assay: beta-lactamase reporter functional assay (hGPR119 HEK293-CRE beta-lactamase cells); format: cell-based; settings: for EC50: read-out: Human B-lactamase Functional EC50; for Emax: read-out: Intrinsic Activity* (B-lactamase)
T1 construct: host or cells: HEK293-CRE-beta-lactamase
T1 sequence (Q8TDV5 1-335): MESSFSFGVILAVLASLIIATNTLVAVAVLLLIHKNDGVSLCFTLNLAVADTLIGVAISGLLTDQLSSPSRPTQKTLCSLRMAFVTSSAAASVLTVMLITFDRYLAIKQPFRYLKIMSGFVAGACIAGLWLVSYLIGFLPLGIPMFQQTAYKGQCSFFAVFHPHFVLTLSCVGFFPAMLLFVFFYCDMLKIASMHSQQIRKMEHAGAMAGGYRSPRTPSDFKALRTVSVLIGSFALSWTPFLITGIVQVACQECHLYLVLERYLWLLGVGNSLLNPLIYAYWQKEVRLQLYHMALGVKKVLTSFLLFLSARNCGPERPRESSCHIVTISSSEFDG
Description: The assay for GPR119 agonists utilizes a cell-based (hGPR119 HEK293-CRE beta-lactamase) reporter construct where agonist activation of human GPR119 is coupled to beta-lactamase production via a cyclic AMP response element (CRE). GPR119 activity is then measured utilizing a FRET-enabled beta-lactamase substrate, CCF4-AM (Live Blazer FRET-B/G Loading kit, Invitrogen cat #K1027). […] After 4 hours the plating medium was removed and replaced with 40 microL of assay medium (Assay medium is plating medium without potassium clavulanate and HIFBS). Varying concentrations of each compound to be tested was then added in a volume of 10 microL (final DMSO≦0.5%) and the cells were incubated for 16 hours at 37 degrees Celsius in a humidified environment containing 5% carbon dioxide. Plates were removed from the incubator and allowed to equilibrate to room temperature for approximately 15 minutes. 10 microL of 6×CCF4/AM working dye solution (prepared according to instructions in the Live Blazer FRET-B/G Loading kit, Invitrogen cat #K1027) was added per well and incubated at room temperature for 2 hours in the dark. Fluorescence was measured on an EnVision fluorimetric plate reader, excitation 405 nm, emission 460 nm/535 nm. EC50 determinations were made from agonist-response curves analyzed with a curve fitting program using a 4-parameter logistic dose-response equation.

[2] = biological target: T1, human GPR119; assay: cAMP HTRF functional assay (hGPR119 HEK-CRE beta-lactamase cells); format: cell-based; settings: for Emax: read-out: Intrinsic Activity* (cAMP)
Description: GPR119 agonist activity was also determined with a cell-based assay utilizing an HTRF (Homogeneous Time-Resolved Fluorescence) cAMP detection kit (cAMP dynamic 2 Assay Kit; Cis Bio cat #62AM4PEC) that measures cAMP levels in the cell. The method is a competitive immunoassay between native cAMP produced by the cells and the cAMP labeled with the dye d2. The tracer binding is visualized by a Mab anti-cAMP labeled with Cryptate. The specific signal (i.e. energy transfer) is inversely proportional to the concentration of cAMP in either standard or sample.
Following 30 minutes incubation at room temperature, 5 microL of labeled d2 cAMP and 5 microL of anti-cAMP antibody (both diluted 1:20 in cell lysis buffer; as described in the manufacturers assay protocol) were added to each well of the assay plate. […] Raw data were converted to nM cAMP by interpolation from a cAMP standard curve (as described in the manufacturer's assay protocol) and EC50 determinations were made from an agonist-response curves analyzed with a curve fitting program using a 4-parameter logistic dose response equation.

[3] = biological target: T1, human GPR119; assay: GPR119 radioligand binding assay ([3H]-Compound A or [3H]-Compound B, HEK 293FT membranes); settings: Ki from IC50 by Cheng-Prusoff; one value per run; read-out: Human Binding Ki
Description: Cells were harvested via centrifugation (3,000×g, 10 minutes), washed once on DPBS (minus Ca++/Mg++), resuspended in 0.25M sucrose, 25 mM HEPES, 0.5 mM EDTA, pH 7.4 and frozen at −80 degrees Celsius.
The frozen cells were thawed on ice and centrifuged at 700×g (1400 rpm) for 10 minutes at 4 degrees Celsius. The cell pellet was resuspended in 20 mL phosphate-buffered saline, and centrifuged at 1400 rpm for 10 minutes. […] Cells were then lysed with 15 gentle strokes of a tight-fitting glass Dounce homogenizer. The homogenate was centrifuged at 1000×g (2200 rpm) for 10 minutes at 4 degrees Celsius. The supernatant was transferred into fresh centrifuge tubes on ice. The cell pellet was resuspended in homogenization buffer, and centrifuged again at 1000×g (2200 rpm) for 10 minutes at 4 degrees Celsius after which the supernatant was removed and the pellet resuspended in homogenization buffer. […] The solution was then centrifuged at 25,000×g (15000 rpm) for 20 minutes at 4 degrees Celsius, the supernatant was discarded, and the pellet was resuspended in fresh homogenization buffer (minus Benzonase and MgCl2). After repeating the 25,000×g centrifugation step, the final membrane pellet was resuspended in homogenization buffer and frozen at −80 degrees Celsius.
2 microL of each dilution was added to appropriate wells of a 96-well plate (each concentration in triplicate).
Membranes expressing GPR119 were thawed and diluted to a final concentration of 20 μg/100 microL per well in Binding Buffer, and 100 microL of diluted membranes were added to each well of 96-well plate.
The plate was incubated for 60 minutes w/shaking at room temperature (approximately 25 degrees Celsius). […] Filters were then washed six times using washing buffer (50 mM Tris-HCl, pH 7.5 kept at 4 degrees Celsius). The filter plates were then air-dyed at room temperature overnight.
IC50 determinations were made from competition curves, analyzed with a proprietary curve fitting program (SIGHTS) and a 4-parameter logistic dose response equation. Ki values were calculated from IC50 values, using the Cheng-Prusoff equation.

[4] = hGPR119 HEK293-CRE beta-lactamase cells, one value per run
[5] = percent of maximal activity relative to standard GPR119 agonist (WO2005121121) at 10 microM, one value per run
[6] = hGPR119 HEK-CRE beta-lactamase cells, HTRF cAMP, one value per run
[7] = percent of maximal activity relative to standard GPR119 agonist (WO2005121121) at 10 μM, one value per run
[8] = **curve was extrapolated to 100% to calculate an EC50

| Compound | EC50 [1, 4] | Emax [1, 5] [%] | EC50 [2, 6] | Intrinsic Activity* (cAMP) [2, 7] | Emax [2, 7] [%] | Ki [3] | EC50 [1, 8] | Emax [1, 8] [%] | Intrinsic Activity* (B-lactamase) [1, 5] | Intrinsic Activity* (B-lactamase) ([1]; percent of maximal activity relative to standard GPR119 agonist (WO2005121121) at 10 microM, one value per run, listed as Exmaple 28) [%] | EC50 [2, 8] [nM] | Emax [2, 8] [%] |
| --- | --- | --- | --- | --- | --- | --- | --- | --- | --- | --- | --- | --- |
| CC(C)OC(=O)N1CCC(n2ncc(COc3ccc(-c4cncn4C)cc3F)c2C#N)CC1 [Example 34, Isopropyl 4-(5-cyano-4-{[2-fluoro-4-(1-methyl-1H-imidazol-5-yl)phenoxy]methyl}-1H-pyrazol-1-yl)piperidine-1-carboxylate] | 270 nM | 102 | 55 nM and 70 nM | 78% | 94 | 87 nM | – | – | – | – | – | – |
| Cc1ccccc1OCc1cnn(C2CCN(C(=O)OC(C)C)CC2)c1C#N [Example 12, Isopropyl 4-{5-cyano-4-[(2-methylphenoxy)methyl]-1H-pyrazol-1-yl}piperidine-1-carboxylate] | – | – | > 10000 nM | – | 31 | 1700 nM | 5200 nM | 100 | – | – | – | – |
| Cc1ncccc1OCc1cnn(C2CCN(C(=O)OC(C)C)CC2)c1C#N [Example 5, Isopropyl 4-(5-cyano-4-{[(2-methylpyridin-3-yl)oxy]methyl}-1H-pyrazol-1-yl)piperidine-1-carboxylate] | 250 nM and 227 nM and 395 nM | 100 | 442 nM and 650 nM | 34% | 39 | 939 nM and 1710 nM | – | – | 88% and 104% | – | – | – |
| Cc1ncccc1OCc1cnn(C2CCN(C(=O)OC3(C)CC3)CC2)c1C#N [Example 30, 1-Methylcyclopropyl 4-(5-cyano-4-{[(2-methylpyridin-3-yl)oxy]methyl}-1H-pyrazol-1-yl)piperidine-1-carboxylate] | 136 nM and 166 nM | – | 256 nM and 245 nM | 60% | 68 | 2020 nM | – | – | 113% and 76% | – | – | – |
| Cc1nc(-n2cncn2)ccc1OCc1cnn(C2CCN(C(=O)OC(C)C)CC2)c1C#N [Example 35, Isopropyl 4-[5-cyano-4-({[2-methyl-6-(1H-1,2,4-triazol-1-yl)pyridin-3-yl]oxy}methyl)-1H-pyrazol-1-yl]piperidine-1-carboxylate] | 76 nM and 125 nM | 83 | 18 nM and 31 nM | 66% | 76 | 31 nM and 29 nM | – | – | 101% | – | – | – |
| CC(C)OC(=O)N1CCC(n2ncc(CC(C)c3ccc(S(C)(=O)=O)cc3F)c2C#N)CC1 (centres unmarked) [Example 29, Isopropyl 4-(5-cyano-4-{2-[2-fluoro-4-(methylsulfonyl)phenyl]propyl}-1H-pyrazol-1-yl)piperidine-1-carboxylate] | – | – | – | 33% | 27 | 1550 nM and 3380 nM | 3010 nM | 100 | – | – | – | – |
| Cc1ncccc1OC(C)c1cnn(C2CCN(C(=O)OC(C)C)CC2)c1C#N (centres unmarked) [Example 28, Isopropyl 4-(5-cyano-4-{1-[(2-methylpyridin-3-yl)oxy]ethyl}-1H-pyrazol-1-yl)piperidine-1-carboxylate] | 5 nM and 3 nM | 27 | > 10000 nM | – | – | > 6100 nM | – | – | – | 22 | – | – |
| CC(C)OC(=O)N1CCC(n2ncc(COc3c(F)ccc(F)c3F)c2C#N)CC1 [Example 32, Isopropyl 4-{5-cyano-4-[(2,3,6-trifluorophenoxy)methyl]-1H-pyrazol-1-yl}piperidine-1-carboxylate] | 281 nM | 86 | 66 nM and 64 nM and 58 nM | 78% and 60% | 66 | 514 nM | – | – | – | – | – | – |
| CC(C)OC(=O)N1CCC(n2ncc(COc3ccc(-c4nnn[nH]4)cc3F)c2C#N)CC1 [Example 19, Isopropyl 4-(5-cyano-4-((2-fluoro-4-(1H-tetrazol-5-yl)phenoxy)methyl)-1H-pyrazol-1-yl)piperidine-1-carboxylate and Isopropyl 4-(5-cyano-4-((2-fluoro-4-(2H-tetrazol-5-yl)phenoxy)methyl)-1H-pyrazol-1-yl)piperidine-1-carboxylate] | – | – | 4550 nM | – | 99 | > 6100 nM | 4000 nM and 4810 nM | 100 | – | – | 4480 | 100 |
| CC(C)OC(=O)N1CCC(n2ncc(COc3ccc(-c4nnnn4C)cc3F)c2C#N)CC1 [Example 20, Isopropyl 4-(5-cyano-4-((2-fluoro-4-(1-methyl-1H-tetrazol-5-yl)phenoxy)methyl)-1H-pyrazol-1-yl)piperidine-1-carboxylate] | 61 nM | 107 | 59 nM and 90 nM | – | 123 | 41 nM and 144 nM | 131 nM | 100 | – | – | – | – |
| Cc1nc(S(C)(=O)=O)ccc1NCc1cnn(C2CCN(C(=O)OC(C)C)CC2)c1C#N [Example 37, Isopropyl 4-[5-cyano-4-({[2-methyl-6-(methylsulfonyl)pyridin-3-yl]amino}methyl)-1H-pyrazol-1-yl]piperidine-1-carboxylate] | 328 nM and 805 nM | 114 | 1160 nM | – | 56 | 416 nM | – | – | 105% | – | – | – |
| CC(C)OC(=O)N1CCC(n2ncc(CNc3ccc(S(C)(=O)=O)cc3F)c2C#N)CC1 [Example 10, Isopropyl 4-[5-cyano-4-({[2-fluoro-4-(methylsulfonyl)phenyl]amino}methyl)-1H-pyrazol-1-yl]piperidine-1-carboxylate] | 34 nM and 38 nM | 100 | 87 nM and 98 nM | 57% | 62 | 28 nM and 30 nM | – | – | 94% | – | – | – |
